In patent US20110263699A1 (priority 2002, published 2011):
Where a name gives a salt, the structure may show the parent alone.

Experiments:
[1] = molecular target: μ-Opioid receptor (Rattus norvegicus, UniProt P33535); test: μ-Opioid receptor binding (rat)
[2] = test system: duration of immobility; test: Tail suspension test on mice; assay type: in vivo
From the text: Rodents left hanging by the tail rapidly become immobile. Antidepressants reduce the duration of the immobility, while tranquilizers prolong the duration of the immobility. […] Several mice were investigated in parallel and the duration of immobility determined. […] 10-20 mice were investigated per group. […] In this behavioural model, antidepressants, as also in other behavioural models, lead to a shortening of the immobility phase, while opioids such as morphine prolong the immobility phase.

[3] = molecular target: NA uptake (Homo sapiens, UniProt P23975); test: biochemical; conditions: read-out: NA uptake inhibition Ki values
[4] = molecular target: 5HT uptake (Homo sapiens, UniProt P31645); test: biochemical; conditions: read-out: 5HT uptake inhibition Ki values
[5] = molecular target: T1, μ-Opioid receptor (Homo sapiens, UniProt P35372); test: μ-Opioid receptor binding (human)
Target sequence in this assay (P35372 whole entry): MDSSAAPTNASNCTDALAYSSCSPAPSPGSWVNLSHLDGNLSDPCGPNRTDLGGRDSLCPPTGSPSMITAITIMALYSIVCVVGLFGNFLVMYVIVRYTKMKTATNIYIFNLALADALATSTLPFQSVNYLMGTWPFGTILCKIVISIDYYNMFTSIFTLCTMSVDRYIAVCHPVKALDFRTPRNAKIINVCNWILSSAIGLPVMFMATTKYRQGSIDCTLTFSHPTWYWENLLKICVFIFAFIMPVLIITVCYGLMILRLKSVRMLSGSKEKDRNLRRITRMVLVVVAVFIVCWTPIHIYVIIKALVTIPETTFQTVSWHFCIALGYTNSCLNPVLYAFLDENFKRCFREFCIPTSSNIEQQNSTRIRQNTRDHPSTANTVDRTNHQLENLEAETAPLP

[6] = molecular target: T1, μ-Opioid receptor; test: μ-Opioid receptor binding (species not given)
Target sequence in this assay (P35372 whole entry, species assumed): as the sequence (P35372 whole entry) above

[7] = 4.64 mg/kg i.p., 30 minutes before the test

Chain of 5HT uptake (P31645 whole entry): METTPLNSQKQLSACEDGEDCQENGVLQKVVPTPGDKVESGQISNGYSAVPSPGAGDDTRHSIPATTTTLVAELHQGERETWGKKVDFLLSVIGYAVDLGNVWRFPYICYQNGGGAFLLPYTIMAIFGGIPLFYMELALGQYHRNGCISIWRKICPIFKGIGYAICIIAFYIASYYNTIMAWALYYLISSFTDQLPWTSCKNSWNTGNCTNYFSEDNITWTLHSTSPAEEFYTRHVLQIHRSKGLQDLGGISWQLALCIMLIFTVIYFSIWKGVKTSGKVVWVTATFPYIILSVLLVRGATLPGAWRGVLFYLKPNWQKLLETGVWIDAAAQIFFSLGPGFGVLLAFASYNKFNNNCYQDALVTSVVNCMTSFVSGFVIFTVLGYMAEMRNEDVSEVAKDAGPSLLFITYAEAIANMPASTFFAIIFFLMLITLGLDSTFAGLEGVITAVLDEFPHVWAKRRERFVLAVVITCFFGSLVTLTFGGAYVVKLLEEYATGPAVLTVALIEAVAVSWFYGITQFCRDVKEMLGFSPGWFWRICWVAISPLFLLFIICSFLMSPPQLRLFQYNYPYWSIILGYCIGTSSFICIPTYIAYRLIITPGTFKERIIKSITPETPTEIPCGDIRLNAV
Chain of NA uptake (P23975 whole entry): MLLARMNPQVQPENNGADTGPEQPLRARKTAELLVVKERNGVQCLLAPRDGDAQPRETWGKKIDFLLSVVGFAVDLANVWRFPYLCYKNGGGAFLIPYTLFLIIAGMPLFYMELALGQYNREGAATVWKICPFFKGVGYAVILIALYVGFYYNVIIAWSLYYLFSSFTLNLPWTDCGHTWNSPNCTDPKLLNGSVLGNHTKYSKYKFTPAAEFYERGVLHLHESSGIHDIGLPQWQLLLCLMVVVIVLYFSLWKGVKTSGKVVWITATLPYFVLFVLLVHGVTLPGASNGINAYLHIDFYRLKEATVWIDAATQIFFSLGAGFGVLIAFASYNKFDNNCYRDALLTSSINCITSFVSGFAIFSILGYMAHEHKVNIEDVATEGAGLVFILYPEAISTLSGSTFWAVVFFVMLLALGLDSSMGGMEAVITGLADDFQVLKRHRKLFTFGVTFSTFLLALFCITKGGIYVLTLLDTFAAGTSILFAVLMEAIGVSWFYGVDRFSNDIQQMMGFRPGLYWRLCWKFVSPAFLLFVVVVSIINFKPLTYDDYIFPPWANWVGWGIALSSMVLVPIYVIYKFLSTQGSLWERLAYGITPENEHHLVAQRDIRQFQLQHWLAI
Chain of μ-Opioid receptor (Rattus norvegicus, UniProt P33535) (P33535 whole entry): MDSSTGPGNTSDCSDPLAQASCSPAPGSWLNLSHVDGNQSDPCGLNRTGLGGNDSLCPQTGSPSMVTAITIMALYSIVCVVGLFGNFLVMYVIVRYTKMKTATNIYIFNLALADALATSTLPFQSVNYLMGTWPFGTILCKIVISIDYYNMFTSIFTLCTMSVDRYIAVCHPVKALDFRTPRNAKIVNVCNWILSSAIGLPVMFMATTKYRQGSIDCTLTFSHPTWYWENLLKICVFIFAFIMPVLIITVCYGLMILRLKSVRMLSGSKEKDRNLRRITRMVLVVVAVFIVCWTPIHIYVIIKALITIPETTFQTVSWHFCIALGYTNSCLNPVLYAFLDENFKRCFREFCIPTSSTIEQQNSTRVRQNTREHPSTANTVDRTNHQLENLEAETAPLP

## CN(C)C[C@@H]1CCCC[C@H]1c1cccc(O)c1.Cl [(1R,2R)-3-(2-dimethylaminomethyl-cyclohexyl)-phenol; hydrochloride]
[1]
  Ki: 38 nM
[2]; [7]
  Duration of immobility % change compared with the solvent control: +6%
[2]; after pretreatment with naloxone
  Duration of immobility (in words): marked decrease in the duration of immobility
[2]; without naloxone pretreatment
  Duration of immobility compared with the solvent control (in words): only a slight change in the duration of immobility
[3]
  Ki: 160 nM
[4]
  Ki: 50 nM

## CNC[C@@H]1CCCC[C@H]1c1cccc(O)c1 [(1R,2R)-3-(2-methylaminomethyl-cyclohexyl)-phenol, hydrochloride]
[5]
  Ki: 910 nM
[3]
  Ki: 560 nM
[4]
  Ki: 9410 nM

## CNCCCN1c2ccccc2CCc2ccccc21 [Desipramine, desipramine]
[6]
  μ-Opioid receptor Ki values: inactive

## CNCCC(Oc1ccc(C(F)(F)F)cc1)c1ccccc1 (stereo not shown) [Fluoxetine, fluoxetine]
[6]
  μ-Opioid receptor Ki values: inactive

## CN(C)CCCN1c2ccccc2CCc2ccccc21 [Imipramine, imipramine]
[2]; 31.6 mg/kg i.p., 30 minutes before the test
  Duration of immobility % change compared with the solvent control: −61%

## CN1CC[C@]23c4c5ccc(O)c4O[C@H]2[C@@H](O)C=C[C@H]3[C@H]1C5 [Morphine, morphine]
[2]; [7]
  Duration of immobility % change compared with the solvent control: +90%
[2]; 10.0 mg/kg i.p., 30 minutes before the test
  Duration of immobility % change compared with the solvent control: +145%
[2]; 21.5 mg/kg i.p., 30 minutes before the test
  Duration of immobility % change compared with the solvent control: +169%

## C=CCN1CC[C@]23c4c5ccc(O)c4O[C@H]2C(=O)CC[C@@]3(O)[C@H]1C5 [Naloxone, naloxone]
[2]; 1.0 mg/kg i.v.
  Duration of immobility % change compared with the solvent control: −15%
